Assay results from ChEMBL document CHEMBL1649074, “Aurora kinase inhibitors based on the imidazo[1,2-a]pyrazine core: fluorine and deuterium incorporation improve oral absorption and exposure” (J Med Chem, 2011).
pIC50: −log10 of the molar value.

Assays:
[1] = biological target: Casein kinase I isoform delta (Homo sapiens, UniProt P48730); assay: Inhibition of CSNK1D
[2] = biological target: Mitogen-activated protein kinase 1 (Homo sapiens, UniProt P28482); assay: Inhibition of ERK2
[3] = biological target: Insulin-like growth factor 1 receptor (Homo sapiens, UniProt P08069); assay: Inhibition of IGF1R
Chain of Insulin-like growth factor 1 receptor (P08069 31-736 limits assumed): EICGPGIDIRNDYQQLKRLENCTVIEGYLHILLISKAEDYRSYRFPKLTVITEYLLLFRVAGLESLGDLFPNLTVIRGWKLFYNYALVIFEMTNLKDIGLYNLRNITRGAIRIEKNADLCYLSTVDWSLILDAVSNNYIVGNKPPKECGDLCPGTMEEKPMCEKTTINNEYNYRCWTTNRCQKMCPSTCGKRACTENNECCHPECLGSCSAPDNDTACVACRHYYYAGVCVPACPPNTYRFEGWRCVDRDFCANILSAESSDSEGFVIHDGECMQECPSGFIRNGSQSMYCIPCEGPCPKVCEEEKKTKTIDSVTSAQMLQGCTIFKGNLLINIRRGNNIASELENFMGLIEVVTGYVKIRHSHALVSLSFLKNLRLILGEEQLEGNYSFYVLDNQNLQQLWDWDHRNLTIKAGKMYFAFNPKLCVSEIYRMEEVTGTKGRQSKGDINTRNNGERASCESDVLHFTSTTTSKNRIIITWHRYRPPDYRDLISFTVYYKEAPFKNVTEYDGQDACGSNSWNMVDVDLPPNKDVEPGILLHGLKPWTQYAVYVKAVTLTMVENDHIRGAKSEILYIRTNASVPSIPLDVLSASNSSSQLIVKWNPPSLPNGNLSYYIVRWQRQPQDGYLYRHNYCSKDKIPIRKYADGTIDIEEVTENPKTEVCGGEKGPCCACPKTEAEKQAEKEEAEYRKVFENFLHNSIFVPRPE
Chain of Insulin-like growth factor 1 receptor (P08069 741-1367 limits assumed): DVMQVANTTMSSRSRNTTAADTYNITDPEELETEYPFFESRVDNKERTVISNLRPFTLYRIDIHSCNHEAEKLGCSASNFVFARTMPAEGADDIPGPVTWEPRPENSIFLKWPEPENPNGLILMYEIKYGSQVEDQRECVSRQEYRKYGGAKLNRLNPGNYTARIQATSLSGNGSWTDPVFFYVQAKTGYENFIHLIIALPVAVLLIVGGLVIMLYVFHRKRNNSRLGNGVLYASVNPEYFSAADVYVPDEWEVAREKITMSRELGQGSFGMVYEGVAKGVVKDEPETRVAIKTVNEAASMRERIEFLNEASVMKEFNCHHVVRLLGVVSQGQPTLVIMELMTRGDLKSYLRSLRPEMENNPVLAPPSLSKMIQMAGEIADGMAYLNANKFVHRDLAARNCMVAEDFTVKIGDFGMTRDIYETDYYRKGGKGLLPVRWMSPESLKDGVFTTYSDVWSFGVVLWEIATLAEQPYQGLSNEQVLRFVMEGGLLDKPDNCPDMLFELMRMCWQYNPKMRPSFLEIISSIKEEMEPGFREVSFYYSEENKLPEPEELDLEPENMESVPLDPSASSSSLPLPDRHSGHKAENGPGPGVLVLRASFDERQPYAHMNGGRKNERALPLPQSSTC

[4] = biological target: Aurora kinase B (Homo sapiens, UniProt Q96GD4); assay: Inhibition of Aurora B in human HCT116 cells assessed as inhibition of histone H3 phosphorylation by immunofluorescence assay; format: cell-based, HCT-116
Chain of Aurora kinase B (Q96GD4 whole entry): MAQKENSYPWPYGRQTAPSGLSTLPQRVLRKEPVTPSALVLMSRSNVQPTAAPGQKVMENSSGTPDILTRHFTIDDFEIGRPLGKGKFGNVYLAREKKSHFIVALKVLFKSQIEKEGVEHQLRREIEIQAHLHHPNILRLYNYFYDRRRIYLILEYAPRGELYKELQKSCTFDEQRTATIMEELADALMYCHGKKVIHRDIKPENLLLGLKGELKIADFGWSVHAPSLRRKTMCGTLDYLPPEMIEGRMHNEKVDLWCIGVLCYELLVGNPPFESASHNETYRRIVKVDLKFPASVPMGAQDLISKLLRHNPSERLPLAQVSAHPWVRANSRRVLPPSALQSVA

[5] = biological target: Rho-associated protein kinase 2 (Homo sapiens, UniProt O75116); assay: Inhibition of ROCK2
Chain of Rho-associated protein kinase 2 (O75116 whole entry): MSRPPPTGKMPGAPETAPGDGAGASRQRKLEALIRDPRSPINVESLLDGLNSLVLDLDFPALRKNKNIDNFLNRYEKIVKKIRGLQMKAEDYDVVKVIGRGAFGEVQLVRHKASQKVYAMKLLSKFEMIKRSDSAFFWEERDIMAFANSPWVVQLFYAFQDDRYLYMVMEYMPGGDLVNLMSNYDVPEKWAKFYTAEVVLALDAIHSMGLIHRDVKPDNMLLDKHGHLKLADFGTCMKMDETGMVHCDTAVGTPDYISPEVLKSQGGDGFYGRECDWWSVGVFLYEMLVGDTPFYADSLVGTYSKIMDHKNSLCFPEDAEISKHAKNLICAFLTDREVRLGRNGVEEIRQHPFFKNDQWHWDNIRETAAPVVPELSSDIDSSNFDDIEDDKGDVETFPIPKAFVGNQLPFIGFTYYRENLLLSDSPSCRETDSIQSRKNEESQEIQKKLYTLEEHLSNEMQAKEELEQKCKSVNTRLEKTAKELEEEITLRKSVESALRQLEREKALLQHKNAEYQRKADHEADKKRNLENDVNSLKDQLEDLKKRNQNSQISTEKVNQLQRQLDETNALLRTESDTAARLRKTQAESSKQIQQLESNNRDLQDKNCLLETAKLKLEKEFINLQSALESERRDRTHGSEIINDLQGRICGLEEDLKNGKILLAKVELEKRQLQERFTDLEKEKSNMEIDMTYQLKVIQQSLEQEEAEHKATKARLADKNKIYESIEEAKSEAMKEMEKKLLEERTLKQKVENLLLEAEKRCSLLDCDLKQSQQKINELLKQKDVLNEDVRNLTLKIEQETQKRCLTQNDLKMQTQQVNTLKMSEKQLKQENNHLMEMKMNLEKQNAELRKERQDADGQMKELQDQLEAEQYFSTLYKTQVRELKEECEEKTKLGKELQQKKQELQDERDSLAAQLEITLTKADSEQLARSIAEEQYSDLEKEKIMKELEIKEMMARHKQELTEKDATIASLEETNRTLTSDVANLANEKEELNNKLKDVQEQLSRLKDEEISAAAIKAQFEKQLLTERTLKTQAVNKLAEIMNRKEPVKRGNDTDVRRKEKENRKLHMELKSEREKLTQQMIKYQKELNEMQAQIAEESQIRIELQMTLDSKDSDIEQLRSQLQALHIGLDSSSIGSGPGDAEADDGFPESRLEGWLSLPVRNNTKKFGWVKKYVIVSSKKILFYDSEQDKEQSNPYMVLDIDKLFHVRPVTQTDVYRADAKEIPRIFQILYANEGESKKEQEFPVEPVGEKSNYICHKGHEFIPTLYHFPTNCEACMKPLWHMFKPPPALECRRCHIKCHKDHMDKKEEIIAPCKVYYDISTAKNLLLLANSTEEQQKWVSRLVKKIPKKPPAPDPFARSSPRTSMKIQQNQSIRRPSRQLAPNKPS

[6] = biological target: T1, Ephrin type-B receptor 4 (Homo sapiens, UniProt P54760); assay: Inhibition of EPHB4
T1 sequence (P54760 whole entry): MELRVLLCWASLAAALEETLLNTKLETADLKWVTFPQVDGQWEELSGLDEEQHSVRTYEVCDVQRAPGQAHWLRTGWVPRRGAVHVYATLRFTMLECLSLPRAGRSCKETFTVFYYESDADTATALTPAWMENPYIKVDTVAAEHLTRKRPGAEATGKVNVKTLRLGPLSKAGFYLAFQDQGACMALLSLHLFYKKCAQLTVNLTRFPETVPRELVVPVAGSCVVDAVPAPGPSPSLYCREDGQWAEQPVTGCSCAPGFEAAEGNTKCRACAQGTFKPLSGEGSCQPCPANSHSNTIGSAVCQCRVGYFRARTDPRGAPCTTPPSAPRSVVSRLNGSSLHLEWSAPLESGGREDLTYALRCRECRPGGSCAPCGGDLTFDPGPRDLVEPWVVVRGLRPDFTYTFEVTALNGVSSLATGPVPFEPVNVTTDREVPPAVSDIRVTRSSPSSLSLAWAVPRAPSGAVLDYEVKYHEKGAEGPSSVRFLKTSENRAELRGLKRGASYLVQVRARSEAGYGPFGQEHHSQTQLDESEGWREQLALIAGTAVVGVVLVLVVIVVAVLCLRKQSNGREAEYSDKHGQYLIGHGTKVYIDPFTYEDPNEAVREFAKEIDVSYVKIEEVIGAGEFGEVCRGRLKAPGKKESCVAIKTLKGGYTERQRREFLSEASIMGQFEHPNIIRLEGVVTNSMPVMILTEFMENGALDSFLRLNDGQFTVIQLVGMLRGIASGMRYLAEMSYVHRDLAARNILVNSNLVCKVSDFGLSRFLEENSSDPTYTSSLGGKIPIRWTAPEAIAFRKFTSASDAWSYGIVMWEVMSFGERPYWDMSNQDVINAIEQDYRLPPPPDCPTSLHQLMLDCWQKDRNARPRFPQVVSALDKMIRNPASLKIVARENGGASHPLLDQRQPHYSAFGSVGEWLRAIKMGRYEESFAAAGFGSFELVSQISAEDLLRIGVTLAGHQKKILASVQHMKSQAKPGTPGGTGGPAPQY

[7] = biological target: T2, Serine/threonine-protein kinase Nek2 (Homo sapiens, UniProt P51955); assay: Inhibition of NEK2
T2 sequence (P51955 whole entry): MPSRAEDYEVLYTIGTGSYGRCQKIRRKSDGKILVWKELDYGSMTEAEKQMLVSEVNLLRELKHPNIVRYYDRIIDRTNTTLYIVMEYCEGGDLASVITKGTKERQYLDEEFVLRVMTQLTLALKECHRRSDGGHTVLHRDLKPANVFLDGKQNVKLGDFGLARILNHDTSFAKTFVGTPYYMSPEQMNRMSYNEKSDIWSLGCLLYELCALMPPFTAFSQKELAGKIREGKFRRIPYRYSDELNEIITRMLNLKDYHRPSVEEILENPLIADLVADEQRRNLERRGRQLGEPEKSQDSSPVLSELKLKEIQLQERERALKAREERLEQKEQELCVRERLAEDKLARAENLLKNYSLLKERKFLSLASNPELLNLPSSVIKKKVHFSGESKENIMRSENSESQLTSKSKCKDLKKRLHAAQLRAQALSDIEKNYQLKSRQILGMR

[8] = biological target: Hepatocyte growth factor receptor (Homo sapiens, UniProt P08581); assay: Inhibition of MET
Chain of Hepatocyte growth factor receptor (P08581 whole entry): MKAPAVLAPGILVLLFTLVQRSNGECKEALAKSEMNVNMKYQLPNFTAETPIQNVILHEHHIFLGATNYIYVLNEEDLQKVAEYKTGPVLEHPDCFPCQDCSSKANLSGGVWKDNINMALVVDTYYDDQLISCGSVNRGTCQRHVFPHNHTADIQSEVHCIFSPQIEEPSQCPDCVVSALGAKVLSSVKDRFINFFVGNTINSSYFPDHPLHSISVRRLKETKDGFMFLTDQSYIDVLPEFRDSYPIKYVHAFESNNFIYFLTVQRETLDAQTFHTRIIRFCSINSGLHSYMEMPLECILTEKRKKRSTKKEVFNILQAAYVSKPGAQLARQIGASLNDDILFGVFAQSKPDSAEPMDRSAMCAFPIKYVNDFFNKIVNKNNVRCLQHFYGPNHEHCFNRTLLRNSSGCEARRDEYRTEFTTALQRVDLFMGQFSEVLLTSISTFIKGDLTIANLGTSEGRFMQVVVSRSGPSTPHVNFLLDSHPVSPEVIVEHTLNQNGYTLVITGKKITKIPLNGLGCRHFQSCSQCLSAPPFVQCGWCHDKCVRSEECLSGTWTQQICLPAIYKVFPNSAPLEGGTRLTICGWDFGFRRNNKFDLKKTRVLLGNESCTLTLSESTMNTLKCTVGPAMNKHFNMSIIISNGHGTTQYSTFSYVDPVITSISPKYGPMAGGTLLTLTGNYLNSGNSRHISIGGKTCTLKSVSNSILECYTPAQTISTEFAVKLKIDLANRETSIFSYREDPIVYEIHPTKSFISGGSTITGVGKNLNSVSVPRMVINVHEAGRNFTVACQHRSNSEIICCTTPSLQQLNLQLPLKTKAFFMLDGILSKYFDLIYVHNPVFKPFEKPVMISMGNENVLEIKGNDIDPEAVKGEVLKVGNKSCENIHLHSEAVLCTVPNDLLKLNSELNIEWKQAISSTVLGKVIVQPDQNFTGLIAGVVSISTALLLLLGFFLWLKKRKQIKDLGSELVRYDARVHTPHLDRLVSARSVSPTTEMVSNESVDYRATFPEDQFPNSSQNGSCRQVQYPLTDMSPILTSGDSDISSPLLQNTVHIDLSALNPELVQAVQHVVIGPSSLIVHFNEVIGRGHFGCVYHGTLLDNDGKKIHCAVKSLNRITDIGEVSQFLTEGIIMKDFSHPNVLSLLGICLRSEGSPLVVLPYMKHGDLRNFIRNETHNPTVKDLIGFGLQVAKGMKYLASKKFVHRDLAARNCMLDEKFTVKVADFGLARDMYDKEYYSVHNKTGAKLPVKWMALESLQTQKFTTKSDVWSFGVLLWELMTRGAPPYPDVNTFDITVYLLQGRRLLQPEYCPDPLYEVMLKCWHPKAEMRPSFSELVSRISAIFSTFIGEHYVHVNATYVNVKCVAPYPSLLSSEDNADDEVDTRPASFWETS

[9] = biological target: T3, Receptor-type tyrosine-protein kinase FLT3 (Homo sapiens, UniProt P36888); assay: Inhibition of FLT3
T3 sequence (P36888 whole entry): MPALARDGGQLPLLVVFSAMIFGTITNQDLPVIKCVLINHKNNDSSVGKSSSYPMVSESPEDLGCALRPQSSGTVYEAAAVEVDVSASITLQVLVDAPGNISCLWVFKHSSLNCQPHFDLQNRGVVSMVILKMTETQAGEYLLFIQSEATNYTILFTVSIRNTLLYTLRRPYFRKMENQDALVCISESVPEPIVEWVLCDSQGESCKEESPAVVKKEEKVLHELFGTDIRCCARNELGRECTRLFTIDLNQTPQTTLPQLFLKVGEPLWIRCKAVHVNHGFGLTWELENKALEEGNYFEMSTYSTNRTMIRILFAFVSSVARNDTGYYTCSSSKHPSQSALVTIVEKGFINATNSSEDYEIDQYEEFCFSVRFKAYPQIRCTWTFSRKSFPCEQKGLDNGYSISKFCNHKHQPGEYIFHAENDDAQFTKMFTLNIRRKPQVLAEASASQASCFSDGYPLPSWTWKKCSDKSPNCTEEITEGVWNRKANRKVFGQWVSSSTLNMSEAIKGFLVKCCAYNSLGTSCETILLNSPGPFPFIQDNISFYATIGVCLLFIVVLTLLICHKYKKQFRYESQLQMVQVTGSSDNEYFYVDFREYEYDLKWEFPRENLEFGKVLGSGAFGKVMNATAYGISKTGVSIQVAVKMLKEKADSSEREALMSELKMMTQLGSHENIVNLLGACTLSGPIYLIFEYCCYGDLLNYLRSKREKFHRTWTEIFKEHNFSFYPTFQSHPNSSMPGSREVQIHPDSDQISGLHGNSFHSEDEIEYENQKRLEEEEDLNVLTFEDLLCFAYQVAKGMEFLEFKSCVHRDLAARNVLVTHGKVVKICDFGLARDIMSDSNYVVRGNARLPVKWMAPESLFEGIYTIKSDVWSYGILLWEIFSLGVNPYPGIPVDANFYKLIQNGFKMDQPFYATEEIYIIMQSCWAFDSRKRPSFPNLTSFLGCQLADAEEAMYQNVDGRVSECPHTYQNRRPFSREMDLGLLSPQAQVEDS

[10] = biological target: Protein kinase C alpha type (Homo sapiens, UniProt P17252); assay: Inhibition of PKCA
[11] = biological target: Serine/threonine-protein kinase PLK3 (Homo sapiens, UniProt Q9H4B4); assay: Inhibition of PLK3

Chain of Casein kinase I isoform delta (P48730 whole entry, canonical isoform): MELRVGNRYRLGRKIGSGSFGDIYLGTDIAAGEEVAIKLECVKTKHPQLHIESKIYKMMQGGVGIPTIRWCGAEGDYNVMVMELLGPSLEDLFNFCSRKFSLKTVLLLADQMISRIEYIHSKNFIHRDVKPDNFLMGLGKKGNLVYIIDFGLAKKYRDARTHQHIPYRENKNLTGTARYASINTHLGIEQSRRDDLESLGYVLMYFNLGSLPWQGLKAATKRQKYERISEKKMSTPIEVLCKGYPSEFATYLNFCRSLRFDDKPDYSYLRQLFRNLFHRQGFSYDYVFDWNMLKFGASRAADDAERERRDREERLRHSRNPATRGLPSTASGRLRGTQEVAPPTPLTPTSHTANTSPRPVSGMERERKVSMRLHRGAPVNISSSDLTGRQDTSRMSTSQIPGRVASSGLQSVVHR

pIC50 [1]	pIC50 [2]	pIC50 [3]	pIC50 [4]	pIC50 [5]	pIC50 [6]	pIC50 [7]	pIC50 [8]	pIC50 [9]	pIC50 [10]	pIC50 [11]	SMILES
< 7.00	< 7.00	< 7.00	7.20	< 7.00	6.15	< 7.00	< 7.00	7.34	< 7.00	< 7.00	Cl.[2H]C([2H])(c1cc(Nc2nc(C)cn3c(-c4cn[nH]c4)cnc23)sn1)N1CCC(F)(F)C1
< 7.00	< 7.00	< 7.00	7.04	< 7.00	6.11	< 7.00	< 7.00	7.12	< 7.00	< 7.00	Cc1cn2c(-c3cn[nH]c3)cnc2c(Nc2cc(CN3CCC(F)(F)C3)ns2)n1.Cl
< 7.00	< 7.00	< 7.00	7.60	< 7.00	7.00	< 7.00	< 7.00	8.30	< 7.00	< 7.00	CCN(Cc1cc(Nc2nc(C)cn3c(-c4cn[nH]c4)cnc23)sn1)C(C)(C)CO
